The NIST ThermoML archive (doi:10.1021/je100508y)
Numbers after ± are expanded uncertainties.

Legend:
[1] = refractive index (Na D-line) (dimensionless); conditions: 298.15 K; 101.33 kPa; Liquid; Standard Abbe refractometry
[2] = 298.15 K; 101.33 kPa; Liquid

Compound | refractive index [1] | mass density [2]
CC1CCCCC1 [methylcyclohexane] | 1.42062 ± 0.00068 | 765.02 ± 0.25 kg/m3
C1CCCCC1 [cyclohexane] | 1.4236 ± 0.00068 | 773.8 ± 0.25 kg/m3
C1CCCCCCC1 [cyclooctane] | 1.45598 ± 0.0007 | 831.47 ± 0.73 kg/m3

Continued, values first:

refractive index [1] | mass density [2] | Compound
1.4791 ± 0.0007 | 1237.23 ± 1.8 kg/m3 | CCOS(=O)(=O)[O-].CCn1cc[n+](C)c1 [1-ethyl-3-methylimidazolium ethyl sulfate]
1.49774 ± 0.00068 | 873.57 ± 0.17 kg/m3 | c1ccccc1 [benzene]
